Experimental data: patent US20230266307A1, “BIOINFORMATICS” (University of Helsinki, priority 2020, published 2023)
No end group written: not given here.

Columns and labels:
[1] = system: JY cells; experiment: in vitro killing assay, real time cytolysis of JY cells by peptide-pulsed CD8+ T cells; assay type: cell-based, human; conditions: for specific cytolysis: CD8+ T cells from HLA-matched PBMCs pulsed with the peptide, coculture with JY cells
Procedure: Next, in order to determine the role of the peptides identified, a gene ontology (GO) term enrichment analysis was performed on our list of 9mer binder source proteins. We observed an enrichment in nuclear and intracellular proteins, mainly those interacting with DNA, RNA or involved in catabolic activity. […] To account for nonspecific cytotoxicity due to the effector cells per se, unstimulated PBMCs were used as a control. Real time cytolysis was then monitored.

[2] = system: ccRCC PDO; experiment: killing assay with peptide-pulsed CD8+ T cells on ccRCC patient-derived organoids; assay type: cell-based, human
From the text: We focused our analysis on ccRCC samples. We used transcriptomics levels to select putative tumour antigens using PBMC and healthy kidney tissue as reference sets. Next, PBMCs from healthy volunteers were pulsed with the selected peptides, and CD8+ T cells isolated from those cells were used in the assay.
Finally, we sought to investigate the recall T cells response in the ccRCC patient. To this end, unfractionated PBMCs derived from the patient were in vitro stimulated with the peptide EVAQPGPSNR whereas unstimulated PBMCs were adopted as control. The derived CD8+T cells were then added to the ccRCC PDO showing about a 7% increase in killing activity compared to the control group.

[3] = system: B16-OVA cells; experiment: intratumoral PeptiCRAd treatment of established B16-OVA tumors; assay type: in vivo, C57BL/6J mice; conditions: B16OVA
Procedure: (§1) A: Scheme of the animal experiment: 4 groups of C57BL mice were formed for each tumor cell line to be tested. Mice were subcutaneously injected either with B16-OVA or B16F10 cells at day 0. Once the tumor was palpable, mice were treated with saline solution (Mock group), uncoated adenovirus (Uncoated Virus group), adenovirus coated with pool of viral peptides homologous to TRP2 (Viral PeptiCRAd, VPC) or adenovirus coated with TRP2 peptide (TRP2 PeptiCRAd, TPC).
(§2) All PeptiCRAd complexes described in this work were prepared by mixing Adenoviruses and polyK-tailed peptides according to the following protocol: 1×10^9 vp(viral particles) were mixed with 20 ug poly-K tailed peptides (resuspended in water); after vortexing, the mixture was incubated at room temperature for 15 min; PBS was added, after the incubation, up to the injection volume (50 uL/mouse), successively, the solution was vortexed again and used for assays or animal injections. For the TRP2-PeptiCRAd, 1×10^9 vp were mixed with 20ug of 6K-TRP2180-188 peptide, while the Viral-PeptiCRAd was prepared using 1×10^9 vp mixed with 5 ug of each viral 6K-peptide homologous for […]. […]
(§3) Tumor growth was followed with a digital caliper measuring two dimensions of the tumor. Successively, the volume was mathematically calculated according to the following formula: […]

[4] = system: B16F10 cells; experiment: intratumoral PeptiCRAd treatment of established B16F10 tumors; assay type: in vivo, C57BL/6J mice
Procedure: as §1, §2, §3

[5] = biological target: HLA-I complexes of the human B-cell lymphoblastoid cell line JY (human); experiment: cell-based or functional assay

For “ILDKKVEKV [HLA-I peptide from JY cells, gene name HSP90AB3P]”, the specific cytolysis [1] was 15% and the “specific cytolysis, comparison among the tested peptides” value ([1]; JY cells, CD8+ T cell-dependent killing) was “higher percentage of specific cytolysis”.

In the case of “EVAQPGPSNR (HSPG2 gene) [peptide from ccRCC organoids, gene name HSPG2]”, the specific cytolysis ([2]; CD8+ T cells from PBMCs of healthy volunteers pulsed with the peptide, ccRCC samples) is reported as “about 10%” and the “increase in killing activity compared to the control group” value ([2]; CD8+ T cells from the ccRCC patient's PBMCs stimulated with the peptide, added to ccRCC PDO, control unstimulated PBMCs) is reported as about 7%.

In the case of “KVLEYVIKV [HLA-I peptide from JY cells, gene name MAGEA1]”, the specific cytolysis [1] is reported as “about 10%”.

“QLVDIIEKV [HLA-I peptide from JY cells, gene name PSME3]” was tested, and the specific cytolysis [1] was “about 10%”.

With “TRP2-PeptiCRAd: adenovirus coated with 6K-TRP2180-188 peptide (KKKKKKSVYDFFVWL; also: coated on adenovirus; UniProt P29812 180-188, looked up, fragment)” the tumor progression ([3]; intratumoral, compared to saline buffer or uncoated virus) was “significantly reduced the tumor progression”, the number of responders ([3]; tumor volume below the median at endpoint) was “significantly higher number of responders” and the tumor progression ([4]; B16F10, intratumoral, compared to saline buffer or uncoated virus) was “significantly reduced the tumor progression”. The number of responders ([4]; B16F10, tumor volume below the median at endpoint) was “significantly higher number of responders”.

B1: … (gene name HSP90AB3P) (peptide)
peptide: ILDKKVEKV
With B1 the specific cytolysis of JY cells by CD8+ T cells pulsed with the peptide [5] was 15%.

B2: … (gene name MAGEA1) (peptide)
peptide: KVLEYVIKV
For B2, the specific cytolysis of JY cells by CD8+ T cells pulsed with the peptide [5] was 10%.

B3: … (gene name PSME3) (peptide)
peptide: QLVDIIEKV
modifications: not fully specified
With B3 the specific cytolysis of JY cells by CD8+ T cells pulsed with the peptide [5] was 10%.
